Assays:
[1] = tested on: rubber bark beetles; parameters: method as in ref 16, 17 = [16]; 16. Shore T. McLean J. Attraction of Platypus wilsoni Swaine (Coleoptera: Platipodidae) to traps baited with sulcatol, ethanol and alpha-pinene Can. For. Serv. Res. Notes 1983 3 24 25 || [17]; 17. Chen Q. Liang X. Wu C. Chen Q. Zhang Z. Trapping effects of 12 aggregation pheromones on rubber bark beetles Chin. J. Trop. Crops 2019 40 2432 2439; conditions: trapping experiments; cited from earlier work
[2] = molecular target: EparOBP2; assay: Fluorescence competitive binding assay (displacement of 1-NPN); parameters: species or system Euplatypus parallelus; conditions: 2 μM protein, 50 mM Tris-HCl pH 7.4; for Ki: Ki = IC50/(1 + [1-NPN]/K1-NPN); for IC50: ligand concentration displacing 50% of 1-NPN
Procedure: (§1) Nine semiochemicals related to the life activities of E. parallelus were used as candidate ligands. The binding capacities of EpraOBP2 were evaluated using an F-7000 fluorescence spectrometer (Hitachi, Tokyo, Japan). The fluorescent reporter N-phenyl-1-naphthylamine (1-NPN) was dissolved in chromatographic methanol at a concentration of 1 mM. The purified EparOBP2 was dissolved in 50 mM Tris-HCl (pH 7.4) at a final concentration of 2 μM. The fluorescence spectra were scanned between 360 and 650 nm. […] Prism 8 (GraphPad Software, San Diego, CA, USA) was used to calculate the dissociation constant of 1-NPN (K1-NPN).
To calculate the binding ability of EparOBP2 with semiochemicals, different odor compounds were used to replace the 1-NPN from the EparOBP2/1-NPN complex. The odor ligands were dissolved in chromatographic methanol at a concentration of 1 mM and added as aliquots to the protein solution. The spectral results were obtained, and the dissociation constants of the competitors were calculated with the formula Ki = IC50/(1 + [1-NPN]/K1-NPN), where 1-NPN represents the free concentration of 1-NPN, while IC50 represents the ligand concentration displacing 50% of the fluorescent reporter.

[3] = tested on: E. parallelus; parameters: method as in ref 7, 15 = [7]; 7. Zhou X. Guo J. Yin T. Gan W. Bai C. Xu F. Yang S. Research progress on rubber bark beetles and trapping control technology in China Chin. J. Trop. Crops 2021 42 3049 3054 || [15]; 15. Xu F. Research of Volatile Compounds of Rubber Tree and Its Behavioral Activities on Two Species of Bark Beetles Hainan University Haikou, China 2019 20 24; conditions: cited from earlier work
[4] = molecular target: EparOBP2; assay: Titration of EparOBP2 with fluorescent probe 1-NPN (saturation and Scatchard plot); format: binding, Euplatypus parallelus; conditions: 2 μM protein titrated with 2 to 20 μM 1-NPN, pH 7.4; read-out: K1-NPN (dissociation constant of 1-NPN)
Procedure: as §1

Structure (SMILES) | attraction effects on rubber bark beetles [1] | Ki [2] [µM] | IC50 [2] [µM] | attraction effect on E. parallelus [3] | Kd [4] [µM]
C=C1C2CCC(C2)C1(C)C (stereo not shown) [Camphene] | attraction effects | 27.4 | 32.9 |  | 
CCCCCCCCCCCCCC [Tetradecane] |  | 26 | 31.2 | attraction effect | 
c1ccc(Nc2cccc3ccccc23)cc1 [1-NPN, N-phenyl-1-naphthylamine] |  |  |  |  | 4.98
CC1=CCC2CC1C2(C)C (stereo not drawn) [α-Pinene] | attraction effects | 15.9 | 19.1 |  | 
C=C1[C@H]2CC[C@@H]3[C@H]2C(C)(C)CCC[C@]13C [(+)-Longifolene] |  | 41.3 | 49.6 | attraction effect | 
C=CC(=C)CCC=C(C)C [Myrcene] | attraction effects | 7.49 | 8.99 |  | 
C=CC(C)(C)O [2-Methyl-3-buten-2-ol] | attraction effects | 31.6 | 37.9 |  | 
CC(C)(O)c1ccccc1 [2-Phenyl-2-propanol] |  | 23.3 | 27.9 | attraction effect | 
C=C(C)[C@@H]1CC=C(C)CC1 [(S)-(-)-Limonene] | attraction effects | 33.7 | 40.4 |  | 
CC1=C[C@H](O)[C@H]2C[C@@H]1C2(C)C [S-(-)-cis-Verbenol] | attraction effects | 19.3 | 23.2 |  | 
